{"source": "paper PMC6792352", "about": "“Limited Chemical Structural Diversity Found to Modulate Thyroid Hormone Receptor in the Tox21 Chemical Library” (Environmental Health Perspectives, 2019)", "assay": "in vitro", "settings": "rat, gh3-tre-luc cells", "note": "Counter-ions that a name gives are not always drawn."}
{"compound": "CC(=O)OC(C)OC(C)=O", "note": "[1,1-Ethanediol diacetate]", "values": [{"measurement": "CC50 at 24 h", "setting": "AC50 (uM) modified / 1000", "result": "> 90", "unit": "µM"}]}
{"compound": "O=C=NC1CCC(CC2CCC(N=C=O)CC2)CC1", "note": "(centres unmarked) [1,1-Methylenebis(4-isocyanatocyclohexane)]", "values": [{"measurement": "CC50 at 24 h", "setting": "AC50 (uM) modified / 1000", "result": "> 90", "unit": "µM"}]}
{"compound": "CN1C(C)(C)CC(O)CC1(C)C", "note": "[1,2,2,6,6-Pentamethylpiperidin-4-ol]", "values": [{"measurement": "CC50 at 24 h", "setting": "AC50 (uM) modified / 1000", "result": "> 90", "unit": "µM"}]}
{"compound": "Cl[C@H]1[C@H](Cl)[C@@H](Cl)[C@@H](Cl)[C@H](Cl)[C@H]1Cl", "note": "[1,2,3,4,5,6-Hexachlorocyclohexane]", "values": [{"measurement": "CC50 at 24 h", "setting": "AC50 (uM) modified / 1000", "result": 45.8, "unit": "µM"}]}
{"compound": "O=C(O)CC(C(=O)O)C(CC(=O)O)C(=O)O", "note": "(centres unmarked) [1,2,3,4-Butanetetracarboxylic acid]", "values": [{"measurement": "CC50 at 24 h", "setting": "AC50 (uM) modified / 1000", "result": "> 90", "unit": "µM"}]}
{"compound": "Clc1ccc(Cl)c(Cl)c1Cl", "note": "[1,2,3,4-Tetrachlorobenzene]", "values": [{"measurement": "CC50 at 24 h", "setting": "AC50 (uM) modified / 1000", "result": "> 90", "unit": "µM"}]}
{"compound": "Nc1c2c(nc3ccccc13)CCCC2", "note": "[1,2,3,4-Tetrahydro-9-acridinamine hydrochloride]", "values": [{"measurement": "CC50 at 24 h", "setting": "AC50 (uM) modified / 1000", "result": "> 90", "unit": "µM"}]}
{"compound": "c1ccc2c(c1)CCNC2", "note": "[1,2,3,4-Tetrahydroisoquinoline]", "values": [{"measurement": "CC50 at 24 h", "setting": "AC50 (uM) modified / 1000", "result": "> 90", "unit": "µM"}]}
{"compound": "OC1CCCc2ccccc21", "note": "(centres unmarked) [1,2,3,4-Tetrahydronaphthalen-1-ol]", "values": [{"measurement": "CC50 at 24 h", "setting": "AC50 (uM) modified / 1000", "result": "> 90", "unit": "µM"}]}
{"compound": "O=C1CCCc2ccccc21", "note": "[1,2,3,4-Tetrahydronaphthalen-1-one]", "values": [{"measurement": "CC50 at 24 h", "setting": "AC50 (uM) modified / 1000", "result": "> 90", "unit": "µM"}]}
{"compound": "Clc1cc(Cl)c(Cl)c(Cl)c1", "note": "[1,2,3,5-Tetrachlorobenzene]", "values": [{"measurement": "CC50 at 24 h", "setting": "AC50 (uM) modified / 1000", "result": "> 90", "unit": "µM"}]}
{"compound": "Cc1cc(C)c(C)c(C)c1", "note": "[1,2,3,5-Tetramethylbenzene]", "values": [{"measurement": "CC50 at 24 h", "setting": "AC50 (uM) modified / 1000", "result": "> 90", "unit": "µM"}]}
{"compound": "O=C1NC(=O)[C@@H]2CC=CC[C@H]12", "note": "[1,2,3,6-Tetrahydrophthalimide]", "values": [{"measurement": "CC50 at 24 h", "setting": "AC50 (uM) modified / 1000", "result": "> 90", "unit": "µM"}]}
{"compound": "O=C(O)c1cccc(C(=O)O)c1C(=O)O", "note": "[1,2,3-Benzenetricarboxylic acid]", "values": [{"measurement": "CC50 at 24 h", "setting": "AC50 (uM) modified / 1000", "result": "> 90", "unit": "µM"}]}
{"compound": "O=c1nn[nH]c2ccccc12", "note": "[1,2,3-Benzotriazin-4(1H)-one]", "values": [{"measurement": "CC50 at 24 h", "setting": "AC50 (uM) modified / 1000", "result": "> 90", "unit": "µM"}]}
{"compound": "c1ccc2[nH]nnc2c1", "note": "[1,2,3-Benzotriazole]", "values": [{"measurement": "CC50 at 24 h", "setting": "AC50 (uM) modified / 1000", "result": "> 90", "unit": "µM"}]}
{"compound": "Clc1cccc(Cl)c1Cl", "note": "[1,2,3-Trichlorobenzene]", "values": [{"measurement": "CC50 at 24 h", "setting": "AC50 (uM) modified / 1000", "result": "> 90", "unit": "µM"}]}
{"compound": "ClCC(Cl)CCl", "note": "[1,2,3-Trichloropropane]", "values": [{"measurement": "CC50 at 24 h", "setting": "AC50 (uM) modified / 1000, Tox21_110001=Tox21_202023, viability, 1 nM T3 present, 24 h", "result": "> 90", "unit": "µM"}]}
{"compound": "Clc1cc(Cl)c(Cl)cc1Cl", "note": "[1,2,4,5-Tetrachlorobenzene]", "values": [{"measurement": "CC50 at 24 h", "setting": "AC50 (uM) modified / 1000", "result": "> 90", "unit": "µM"}]}
{"compound": "Cc1cc(C)c(C)cc1C", "note": "[1,2,4,5-Tetramethylbenzene]", "values": [{"measurement": "CC50 at 24 h", "setting": "AC50 (uM) modified / 1000", "result": "> 90", "unit": "µM"}]}
{"compound": "O=C(O)c1ccc(C(=O)O)c(C(=O)O)c1", "note": "[1,2,4-Benzenetricarboxylic acid]", "values": [{"measurement": "CC50 at 24 h", "setting": "AC50 (uM) modified / 1000", "result": "> 90", "unit": "µM"}]}
{"compound": "c1nc[nH]n1", "note": "[1,2,4-Triazole, sodium salt]", "values": [{"measurement": "CC50 at 24 h", "setting": "AC50 (uM) modified / 1000", "result": "> 90", "unit": "µM"}]}
{"compound": "Brc1ccc(Br)c(Br)c1", "note": "[1,2,4-Tribromobenzene]", "values": [{"measurement": "CC50 at 24 h", "setting": "AC50 (uM) modified / 1000", "result": "> 90", "unit": "µM"}]}
{"compound": "Clc1ccc(Cl)c(Cl)c1", "note": "[1,2,4-Trichlorobenzene]", "values": [{"measurement": "CC50 at 24 h", "setting": "AC50 (uM) modified / 1000", "result": "> 90", "unit": "µM"}]}
{"compound": "COc1ccc(OC)c(OC)c1", "note": "[1,2,4-Trimethoxybenzene]", "values": [{"measurement": "CC50 at 24 h", "setting": "AC50 (uM) modified / 1000", "result": "> 90", "unit": "µM"}]}
{"compound": "Cc1ccc(C)c(C)c1", "note": "[1,2,4-Trimethylbenzene]", "values": [{"measurement": "CC50 at 24 h", "setting": "AC50 (uM) modified / 1000", "result": "> 90", "unit": "µM"}]}
{"compound": "OCCCCC(O)CO", "note": "(centres unmarked) [1,2,6-Hexanetriol]", "values": [{"measurement": "CC50 at 24 h", "setting": "AC50 (uM) modified / 1000", "result": "> 90", "unit": "µM"}]}
{"compound": "N#Cc1ccccc1C#N", "note": "[1,2-Benzenedicarbonitrile]", "values": [{"measurement": "CC50 at 24 h", "setting": "AC50 (uM) modified / 1000", "result": "> 70", "unit": "µM"}]}
{"compound": "O=c1[nH]sc2ccccc12", "note": "[1,2-Benzisothiazolin-3-one]", "values": [{"measurement": "CC50 at 24 h", "setting": "AC50 (uM) modified / 1000", "result": 5.86, "unit": "µM"}]}
{"compound": "ClCCOCCOCCCl", "note": "[1,2-Bis(2-chloroethoxy)ethane]", "values": [{"measurement": "CC50 at 24 h", "setting": "AC50 (uM) modified / 1000", "result": "> 90", "unit": "µM"}]}
{"compound": "c1ccc(SCCSc2ccccc2)cc1", "note": "[1,2-Bis(phenylthio)ethane]", "values": [{"measurement": "CC50 at 24 h", "setting": "AC50 (uM) modified / 1000", "result": "> 90", "unit": "µM"}]}
{"compound": "N[C@@H]1CCCC[C@H]1N", "note": "[1,2-Cyclohexanediamine]", "values": [{"measurement": "CC50 at 24 h", "setting": "AC50 (uM) modified / 1000", "result": "> 90", "unit": "µM"}]}
{"compound": "O=C(OCC1CO1)C1CCCCC1C(=O)OCC1CO1", "note": "(centres unmarked) [1,2-Cyclohexanedicarboxylic acid, bis(oxiranylmethyl) ester]", "values": [{"measurement": "CC50 at 24 h", "setting": "AC50 (uM) modified / 1000", "result": 44.7, "unit": "µM"}]}
{"compound": "CC(N)CN", "note": "(centres unmarked) [1,2-Diaminopropane]", "values": [{"measurement": "CC50 at 24 h", "setting": "AC50 (uM) modified / 1000", "result": "> 100", "unit": "µM"}]}
{"compound": "N#CCCC(Br)(C#N)CBr", "note": "(centres unmarked) [1,2-Dibromo-2,4-dicyanobutane]", "values": [{"measurement": "CC50 at 24 h", "setting": "AC50 (uM) modified / 1000", "result": 16.2, "unit": "µM"}]}
{"compound": "ClCC(Br)CBr", "note": "(centres unmarked) [1,2-Dibromo-3-chloropropane]", "values": [{"measurement": "CC50 at 24 h", "setting": "AC50 (uM) modified / 1000, Tox21_110001=Tox21_200382, viability, 1 nM T3 present, 24 h", "result": "> 90", "unit": "µM"}]}
{"compound": "BrCC(Br)C1CCC(Br)C(Br)C1", "note": "(centres unmarked) [1,2-Dibromo-4-(1,2-dibromoethyl)cyclohexane]", "values": [{"measurement": "CC50 at 24 h", "setting": "AC50 (uM) modified / 1000", "result": 55.8, "unit": "µM"}]}
{"compound": "BrCCBr", "note": "[1,2-Dibromoethane]", "values": [{"measurement": "CC50 at 24 h", "setting": "AC50 (uM) modified / 1000, Tox21_110001=Tox21_201427, viability, 1 nM T3 present, 24 h", "result": "> 90", "unit": "µM"}]}
{"compound": "Clc1ccc(C(Cl)(Cl)Cl)cc1Cl", "note": "[1,2-Dichloro-4-(trichloromethyl)benzene]", "values": [{"measurement": "CC50 at 24 h", "setting": "AC50 (uM) modified / 1000", "result": "> 90", "unit": "µM"}]}
{"compound": "FC(F)(F)c1ccc(Cl)c(Cl)c1", "note": "[1,2-Dichloro-4-(trifluoromethyl)benzene]", "values": [{"measurement": "CC50 at 24 h", "setting": "AC50 (uM) modified / 1000", "result": "> 90", "unit": "µM"}]}
{"compound": "Clc1ccccc1Cl", "note": "[1,2-Dichlorobenzene]", "values": [{"measurement": "CC50 at 24 h", "setting": "AC50 (uM) modified / 1000", "result": "> 90", "unit": "µM"}]}
